{"source": "ChEMBL document CHEMBL1201862", "about": "“PubChem BioAssay data set” (2004)", "experiment_in_all_cases": "NCI anticancer screen, dose series, 48 h", "key": {"ACHN": {"system": "ACHN"}, "U-251": {"system": "U-251"}, "NCI/ADR-RES": {"system": "NCI/ADR-RES"}, "MOLT-4": {"system": "MOLT-4"}, "OVCAR-4": {"system": "OVCAR-4"}, "NCI-H226": {"system": "NCI-H226"}, "LOX IMVI": {"system": "LOX IMVI"}, "SF-268": {"system": "SF-268"}, "HOP-62": {"system": "HOP-62"}, "A549": {"system": "A549"}, "NCI-H23": {"system": "NCI-H23"}, "SNB-75": {"system": "SNB-75"}, "RXF 393": {"system": "RXF 393"}, "SW-620": {"system": "SW-620"}, "OVCAR-5": {"system": "OVCAR-5"}, "HL-60": {"system": "HL-60"}, "SF-539": {"system": "SF-539"}, "Malme-3M": {"system": "Malme-3M"}, "NCI-H522": {"system": "NCI-H522"}, "IGROV-1": {"system": "IGROV-1"}, "M14": {"system": "M14"}, "SN12C": {"system": "SN12C"}, "MDA-MB-435": {"system": "MDA-MB-435"}, "SK-OV-3": {"system": "SK-OV-3"}, "UACC-257": {"system": "UACC-257"}, "COLO 205": {"system": "COLO 205"}, "UACC-62": {"system": "UACC-62"}, "SF-295": {"system": "SF-295"}, "A498": {"system": "A498"}, "CCRF-CEM": {"system": "CCRF-CEM"}, "KM12": {"system": "KM12"}, "HOP-92": {"system": "HOP-92"}, "T47D": {"system": "T47D"}, "SK-MEL-2": {"system": "SK-MEL-2"}, "SNB-19": {"system": "SNB-19"}, "RPMI-8226": {"system": "RPMI-8226"}, "EKVX": {"system": "EKVX"}, "CAKI-1": {"system": "CAKI-1"}, "Hs-578T": {"system": "Hs-578T"}, "OVCAR-3": {"system": "OVCAR-3"}, "BT-549": {"system": "BT-549"}, "HCT-15": {"system": "HCT-15"}, "SK-MEL-28": {"system": "SK-MEL-28"}, "TK-10": {"system": "TK-10"}, "OVCAR-8": {"system": "OVCAR-8"}, "HT-29": {"system": "HT-29"}, "UO-31": {"system": "UO-31"}, "MDA-MB-231": {"system": "MDA-MB-231"}, "HCT-116": {"system": "HCT-116"}, "SK-MEL-5": {"system": "SK-MEL-5"}, "DU-145": {"system": "DU-145"}, "NCI-H460": {"system": "NCI-H460"}, "MCF7": {"system": "MCF7"}, "PC-3": {"system": "PC-3"}, "786-0": {"system": "786-0"}}, "note": "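Exposure lasted 48 hours, with cells grown in 96-well plates and compounds tested at five concentrations. At the GI50, growth is halved.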 The source made the active and inactive calls. No stated cut-off is given here; in the data, active = GI50 up to about 1.1 µM and inactive = higher."}
{"smiles": "CC[N+](C)(CC)CCN1C(=O)c2ccccc2S1(=O)=O", "values": [{"measurement": "GI50", "setting": "ACHN", "result": "> 100 µM (inactive)"}, {"measurement": "GI50", "setting": "U-251", "result": "> 100 µM (inactive)"}, {"measurement": "GI50", "setting": "NCI/ADR-RES", "result": "> 100 µM (inactive)"}, {"measurement": "GI50", "setting": "MOLT-4", "result": "39.8 µM (inactive)"}, {"measurement": "GI50", "setting": "OVCAR-4", "result": "> 100 µM (inactive)"}, {"measurement": "GI50", "setting": "NCI-H226", "result": "> 100 µM (inactive)"}, {"measurement": "GI50", "setting": "LOX IMVI", "result": "> 100 µM (inactive)"}, {"measurement": "GI50", "setting": "SF-268", "result": "> 100 µM (inactive)"}, {"measurement": "GI50", "setting": "HOP-62", "result": "> 100 µM (inactive)"}, {"measurement": "GI50", "setting": "A549", "result": "> 100 µM (inactive)"}, {"measurement": "GI50", "setting": "NCI-H23", "result": "> 100 µM (inactive)"}, {"measurement": "GI50", "setting": "SNB-75", "result": "> 100 µM (inactive)"}, {"measurement": "GI50", "setting": "RXF 393", "result": "> 100 µM (inactive)"}, {"measurement": "GI50", "setting": "SW-620", "result": "> 100 µM (inactive)"}, {"measurement": "GI50", "setting": "OVCAR-5", "result": "> 100 µM (inactive)"}, {"measurement": "GI50", "setting": "HL-60", "result": "> 100 µM (inactive)"}, {"measurement": "GI50", "setting": "SF-539", "result": "> 100 µM (inactive)"}, {"measurement": "GI50", "setting": "Malme-3M", "result": "> 100 µM (inactive)"}, {"measurement": "GI50", "setting": "NCI-H522", "result": "> 100 µM (inactive)"}, {"measurement": "GI50", "setting": "IGROV-1", "result": "> 100 µM (inactive)"}, {"measurement": "GI50", "setting": "M14", "result": "> 100 µM (inactive)"}, {"measurement": "GI50", "setting": "SN12C", "result": "> 100 µM (inactive)"}, {"measurement": "GI50", "setting": "MDA-MB-435", "result": "> 100 µM (inactive)"}, {"measurement": "GI50", "setting": "SK-OV-3", "result": "> 100 µM (inactive)"}, {"measurement": "GI50", "setting": "UACC-257", "result": "> 100 µM (inactive)"}, {"measurement": "GI50", "setting": "COLO 205", "result": "> 100 µM (inactive)"}, {"measurement": "GI50", "setting": "UACC-62", "result": "> 100 µM (inactive)"}, {"measurement": "GI50", "setting": "SF-295", "result": "> 100 µM (inactive)"}, {"measurement": "GI50", "setting": "A498", "result": "> 100 µM (inactive)"}, {"measurement": "GI50", "setting": "CCRF-CEM", "result": "> 100 µM (inactive)"}, {"measurement": "GI50", "setting": "KM12", "result": "> 100 µM (inactive)"}, {"measurement": "GI50", "setting": "HOP-92", "result": "> 100 µM (inactive)"}, {"measurement": "GI50", "setting": "T47D", "result": "> 100 µM (inactive)"}, {"measurement": "GI50", "setting": "SK-MEL-2", "result": "> 100 µM (inactive)"}, {"measurement": "GI50", "setting": "SNB-19", "result": "> 100 µM (inactive)"}, {"measurement": "GI50", "setting": "RPMI-8226", "result": "> 100 µM (inactive)"}, {"measurement": "GI50", "setting": "EKVX", "result": "> 100 µM (inactive)"}, {"measurement": "GI50", "setting": "CAKI-1", "result": "> 100 µM (inactive)"}, {"measurement": "GI50", "setting": "Hs-578T", "result": "> 100 µM (inactive)"}, {"measurement": "GI50", "setting": "OVCAR-3", "result": "> 100 µM (inactive)"}, {"measurement": "GI50", "setting": "BT-549", "result": "> 100 µM (inactive)"}, {"measurement": "GI50", "setting": "HCT-15", "result": "> 100", "unit": "µM"}, {"measurement": "GI50", "setting": "SK-MEL-28", "result": "> 100 µM (inactive)"}, {"measurement": "GI50", "setting": "TK-10", "result": "> 100 µM (inactive)"}, {"measurement": "GI50", "setting": "OVCAR-8", "result": "> 100 µM (inactive)"}, {"measurement": "GI50", "setting": "HT-29", "result": "> 100 µM (inactive)"}, {"measurement": "GI50", "setting": "UO-31", "result": "> 100 µM (inactive)"}, {"measurement": "GI50", "setting": "MDA-MB-231", "result": "> 100 µM (inactive)"}, {"measurement": "GI50", "setting": "HCT-116", "result": "> 100 µM (inactive)"}, {"measurement": "GI50", "setting": "SK-MEL-5", "result": "> 100 µM (inactive)"}, {"measurement": "GI50", "setting": "DU-145", "result": "> 100 µM (inactive)"}, {"measurement": "GI50", "setting": "NCI-H460", "result": "> 100 µM (inactive)"}, {"measurement": "GI50", "setting": "MCF7", "result": "> 100 µM (inactive)"}, {"measurement": "GI50", "setting": "PC-3", "result": "> 100 µM (inactive)"}, {"measurement": "GI50", "setting": "786-0", "result": "> 100 µM (inactive)"}]}
